The MIC is the lowest concentration that inhibits growth of the organism. Higher therefore signals a less susceptible organism.

Two compounds from ChEMBL document CHEMBL1671648, “Molecular epidemiology of outbreak-related pseudomonas aeruginosa strains carrying the novel variant blaVIM-17 metallo-beta-lactamase gene” (2009) can be followed below.

≈ marks a conversion by molar mass, not a printed value.

Assay [1] relates to Pseudomonas aeruginosa. The assay is described as follows: Antibacterial activity against blaVIM-2-positive Pseudomonas aeruginosa by CLSI Etest method. Format: functional.
For assay [2], the system named is Pseudomonas aeruginosa. The assay is described as follows: Antibacterial activity against blaVIM-2-positive Pseudomonas aeruginosa by CLSI broth microdilution method. Format: functional.

Regarding `C[C@@H](O)[C@H]1C(=O)N2C(C(=O)O)=C(SCCNC=N)C[C@H]12` [IMIPENEM ANHYDROUS], the MIC against Pseudomonas aeruginosa [1] is at least 128 µg/mL.

`C[C@@H](O)[C@H]1C(=O)N2C(C(=O)O)=C(S[C@@H]3CN[C@H](C(=O)N(C)C)C3)[C@H](C)[C@H]12` [MEROPENEM]: it took 32 µg/mL (≈ 83.4 µM) to inhibit growth in the assay with Pseudomonas aeruginosa [2] (MIC).
